This is an account of results in patent US5045546A, “8-azabicyclo[3.2.1]octylalkylthiazolidines” (Hoechst-Roussel Pharmaceuticals Inc., priority 1990, dated 1991).

Where two headings read alike, the source gives them in different places.

Test [1] has as its system apomorphine induced stereotypy. Nature of the test: inhibition of apomorphine stereotypy assay (potential for extrapyramidal side effects). The note with it: rats, drug one hour prior to scoring, apomorphine 1.5 mg/kg s.c. The class given is in vivo, male Wistar rats. The procedure: Potential for undersirable extrapyramidal side effect activity is determined in the inhibition of apomorphine stereotypy assay by a method similar to those described by N. E. Anden, et al., J. Pharma. Pharmacol., 19, 627, (1967), and A. M. Ernst, et al., Psychopharmacologia (Berl.), 10, 316 (1967).
In this assay, groups of male Wistar rats (125-200 grams) are used and food and water are available ad libitum. Drugs are prepared using distilled water and, if insoluble, a suitable surfactant is added. The route of administration may be varied and the dosage volume is 10 ml/kg. For a primary screen, a group size of six is used. Drug is administered one hour prior to scoring and the animals are placed in individual clear plastic cages (24×14×13 cm). The control group receives vehicle. Apomorphine hydrochloride solution is prepared at a concentration of 15 mg/10 ml in a 0.03% ascorbic acid stock solution (30 mg of ascorbic acid in 100 ml of 1% saline) to increase the stability of the apomorphine hydrochloride while in solution. Apomorphine hydrochloride solution is administered at a dose of 1.5 mg/kg subcutaneous (s.c.) with a dosage volume of 1 ml/kg. Fifty minutes after drug dosing, stereotypic behavior is noted. Stereotypic activity is defined as sniffing, licking or chewing behavior that occurs in a repetitive manner and is rated as follows: Constant sniffing, licking or chewing without interruption; the animal is considered protected if this behavior is interrupted.
The percent effectiveness of a drug is determined by the number of animals protected in each group. Antipsychotics displaying little effect in this assay would be expected to show a low propensity to cause undersirable extrapyramidal side effects and/or tardive dyskinesias in mammals (N. C. Moore and S. Gershon, Clinical Neuropharmacology, 12, 167, (1989).
A dose-response is run in the same manner as a primary screen except that a group size of 10 is used and the animals are dosed in a randomized manner. One group receives vehicle. ED50 for stereotypy are calculated by means of probit analysis.
Inhibition of apomorphine induced stereotypy of respresentative 8-azabicyclo[3.2.1]octylalkylthiazolidinones of the present invention and two standards is given in Table II.

For test [2], the system named is apomorphine-induced climbing. Nature of the test: inhibition of apomorphine-induced climbing in mice (climbing mice assay, antipsychotic activity). In kind it is in vivo, CK-1 male mice. The note with it: Mus musculus, ip, 0.5 h, read-out: Antipsychotic Activity ED50. The procedure: The 8-azabicyclo[3.2.1]octylalkylthiazolidnones of the present invention are useful for treating psychoses by virtue of their ability to block apomorphine-induced climbing in mammals.
Antipsychotic activity is determined in the climbing mice assay by a method similar to those described by P. Protais et al., Psychopharmacol., 50,1 (1976) and B. Costall, Eur. J. Pharmacol., 50, 39 (1978).
The subject CK-1 male mice (23-27 grams) are group-housed under standard laboratory conditions. The mice are individually placed in wire mesh stick cages (4"×4"×10") and are allowed one hour for adaptation and exploration of the new environment. Then apomorphine is injected subcutaneously at 1.5 mg/kg, a dose causing climbing in all subjects for 30 minutes. Compounds to be tested for antipsychotic activity are injected intraperitoneally 30 minutes prior to the apomorphine challenge at a screening dose of 10 mg/kg.
For evaluation of climbing, 3 readings are taken at 10, 20 and 30 minutes after apomorphine administration according to the following scale:
4 paws on bottom (no climbing)
2 paws on the wall (rearing)
4 paws on the wall (full climb)
Mice consistently climbing before the injection of apomorphine will be discarded.
With full-developed apomorphine climbing, the animals are hanging onto the cage walls, rather motionless, over longer periods of time. By contrast, climbs due to mere motor stimulation usually only last a few seconds.
The climbing scores are individually totaled (maximal score; 6 per mouse over 3 readings) and the total score of the control group (vehicle intraperitioneally-apomorphine subcutaneously) is set to 100%. ED50 values with 95% confidence limits are calculated by a Linear Regression Analysis. Antipsychotic activity expressed as the ED50 value of representative 8-azabicyclo[3.2.1]octylalkylthiazolidinones as well as two standard antipsychotics are presented in Table I.

The ED50 is the dose that gives a 50% effect, or the effect in half of the subjects. Consider `CC1(C)SCN(CCCCN2C3CCC2CC(OC(c2ccccc2)c2ccccc2)C3)C1=O.Cl` (centres unmarked) [3-[4-[3-(diphenylmethoxy)-8-azabicyclo[3.2.1]octan-8-yl]-butyl]-5,5-dimethyl-4-thiazolidinone hydrochloride], for which the “% Inhibition of apomorphine induced stereotypy” value (“% Inhibition” for short) in test [1] (dose 40 mg/kg body wt.) is on record as 17%. Further, in test [2], the ED50 amounted to 7.73 mg/kg.

For the compound `CC1SCN(CCCCN2C3CCC2CC(OC(c2ccccc2)c2ccccc2)C3)C1=O.Cl` (centres unmarked) [3-[4-[3-(diphenylmethoxy)-8-azabicyclo[3.2.1]octan-8-yl]-butyl]-5-methyl-4-thiazolidinone hydrochloride], in test [1] (dose 20 mg/kg body wt.), the “% Inhibition” value is 0%. Besides, the ED50 in test [2] worked out at 12.1 mg/kg.

With `O=C(CCCN1CCC(O)(c2ccc(Cl)cc2)CC1)c1ccc(F)cc1` [haloperidol], the “% Inhibition” value in test [1] (dose 0.2 mg/kg body wt.) is 50%. Moreover, the median effective dose (ED50) in test [2] was 0.16 mg/kg.

In the case of `CSc1ccc2c(c1)N(CCC1CCCCN1C)c1ccccc1S2` (centres unmarked) [thioridazine], the “% Inhibition” value in test [1] (dose 16 mg/kg body wt.) was determined as 50%. The ED50 in test [2] (climbing mice assay, compound intraperitoneal 30 minutes prior to apomorphine 1.5 mg/kg s.c., Linear Regression Analysis) worked out at 4.1 mg/kg.
